One data set relates to RBL-2H3 cells. In words: Calcium mobilization assay (Fluo-3). Type of data set: cell-based, rat. As to the method:
IgE sensitized RBL-2H3 cells were loaded with 1 μM Fluo-3 for 1 hour as described in the Examples below. The cells were then challenged with DNP-BSA or ionomycin and change in fluorescence was recorded. To study the effect of WHI-P131 on intracellular calcium mobilization, IgE-sensitized and Fluo-3 loaded RBL-2H3 cells were incubated with 3 μM, 12 μM or 30 μM WHI-P131 for 5 minutes prior to challenge with DNP-BSA or ionomycin.
Calcium Measurement: Calcium mobilization assay was performed as described earlier (Zhu et. al., 1998, Clin. Cancer Res., 4:2967-2976). RBL-2H3 cells were loaded with Fluo-3 and stimulated with DNP-BSA in presence and absence of WJI-P131 as described above. Calcium response was measured by an calcium imaging device (Universal Imaging Co., West Chester, Pa.) mounted onto a inverted microscope. The exitation wavelength was 485 nm and the emission wavelength for detection was 535 nm. The fluorescent image of an individual cell was acquired by a CCD72 video camera (Dage-MTI Inc., Michigan City, Ill.) at the speed of 1 frame/s and digitized by computer.

The next data set has as its system BALB/c mice. In words: Passive systemic anaphylaxis model. Type of data set: in vivo. Particulars: pretreated mice. Here is the method: FIG. 14B is a photograph showing plasma extravasation during systemic anaphylaxis, evaluated as described in the Examples.
FIG. 14C is a photograph showing results of histopathologic evaluation of mast cell degranulation. Ears were removed 1 hour after the antigen challenge from vehicle treated as well as WHI-P131 treated mice. Formalin-fixed thin sections (3-5 μm) of ears from were stained with Avidin-FITC.
FIG. 4D is a graph showing blood histamine levels of sensitized mice analyzed after antigen challenge. Blood was collected by retro-orbital bleeding and histamine levels were measured by ELISA. Histamine levels are expressed as nM. The histamine levels in the blood of PBS treated mice and IgE/antigen stimulated mice was 493±131 and 7527±2102 nM respectively. The results are the mean±SEM values; n=3.
To induce passive systemic anaphylaxis, BALB/c mice were sensitized with […] DNP-IgE intravenously. At 24 hours DNP-BSA (2 mg) was administered intravenously with 0.5% Evans blue (200 μl). For assessment of vascular leak, animals were sacrificed 30 minutes after the antigen challenge and their foot pads were examined for blue coloration. Histamine levels in plasma were measured 5 minutes after the antigen challenge. […] For histopathologic evaluation of tissue mast cell degranulation, ears of mice were removed 1 hour after the DNP-BSA injection and fixed in 10 percent buffered formalin. Processed thin sections (3-5 μm) were stained with Avidin-FITC (6.25 μg/ml) for 2 hours, washed with PBS to remove unbound dye and then mounted in buffered glycerol, 30 mM triethylenediamine, pH 8.6 (Malaviya et. al., 1994, J. Clin. Invest., 93:1645-1653). In the murine model for antigen induced active anaphylaxis, mice were sensitized with 2 mg BSA in 200 μl aluminum hydroxide gel (Reheis Inc., Berkeley, N.J.). Ten days later anaphylactic shock was induced by the i.v. injection of the animals with 200 μg BSA.

Data set [1] can be described thus: Pharmacokinetic studies in mice. The class given is in vivo. The note with it: for Cmax: 12.5 mg/kg bolus, read-out: estimated maximum plasma concentration (Cmax). As to the method:
FIGS. 13A and 13B are graphs showing pharmacokinetic features of the JAK3 inhibitor WHI-P131 in mice. Plasma concentration-time profiles of WHI-P131 in mice following intravenous [13A] or intraperitoneal [13B] administration (12.5 mg/kg; 5 mice per group). The pharmacokinetic parameters, including the central volume of distribution (Vc), estimated maximum plasma concentration (Cmax), elimination half-life (t½β), systemic exposure level/area under plasma concentration-time curve (AUC), and bioavailability (F), are shown in the insets.
Pharmacokinetic Studies: In pharmacokinetic studies, mice were injected either intravenously (i.v.) via the tail vein or intraperitoneally (i.p.) with a bolus dose of 300 μg/mouse (12.5 mg/kg =34 μmols/kg) of WHI-P131. Blood samples were obtained from the ocular venous plexus by retroorbital venupuncture prior to and at 3 minutes, 5 minutes, 10 minutes, 15 minutes, 30 minutes, 45 minutes and 1 hour, 2 hours, 4 hours and 8 hours a administration of WHI-P131. All collected blood samples were heparinized and centrifuged at 7,000×g for 10 minutes in a microcentrifuge to obtain plasma. The plasma samples were stored at −20° C. until analysis. Aliquots of plasma were used for extraction and HPLC analysis. Pharmacokinetic modeling and pharmacokinetic parameter calculations were carried out using the pharmacokinetics software, WinNonline Program, Version 1.1. (Scientific Consulting Inc., Cary, N.C.). Concentration data were weighted by 1/concentration. An appropriate pharmacokinetic model was chosen on the basis of lowest weighted squared residuals, lowest Schwartz criterion (SC), lowest Akaike's Information Criterion (AIC) value, lowest standard errors of the fitted parameters, and dispersion of the residuals. The elimination half-life was estimated by linear regression analysis of the terminal phase of the plasma concentration profile. The area under the concentration time curve (AUC) was calculated by the trapezoidal rule between first (0 h) and last sampling time plus C/k, where C is the concentration of last sampling and k is the elimination rate constant. Systemic clearance (CL) was determined by dividing the dose by the AUC. The apparent volume of distribution at steady-state was calculated using the following equation, Vss=Dose·AUMC/(AUC)^2 Bioavailability (F) was estimated using the equation F(%)=AUCip×Doseiv/AUCiv×Doseip.
In brief, the HPLC system consisted of a Hewlett Packard (HP) series 1100 equipped with an automated electronic degasser, a quaternary pump, an autosampler, an automatic thermostatic column compartment, diode array detector and a computer with a Chemstation software program for data analysis. A 250×4 mm Lichrospher 100, RP-18 (5 μm) analytical column and a 4×4 mm Lichrospher 100, RP-18 (5 μm) guard column were obtained from Hewlett Packard Inc. (San Fernando, Calif.). Acetonitrile/water containing 0.1% of trifluoroacetic acid (TFA) and 0.1% triethylamine (TEA) (28:72, v/v) was used as the mobile phase. The wavelength of detection was set at 340 nm. Peak width, response time and slit were set at >0.03 minutes, 0.5 seconds and 8 nm, respectively. […] For extraction, 7 ml chloroform was then added to the plasma sample, and the mixture was vortexed thoroughly for 3 minutes. Following centrifugation (300×g, 5 minutes), the aqueous layer was frozen using acetone/dry ice and the organic phase was transferred into a clean test tube. The chloroform extracts were dried under a slow steady stream of nitrogen. The residue was reconstituted in 100 μL of methanol: water (9:1) and 50 μL aliquot of this solution was used for HPLC analysis.

Where two headings read alike, the source gives them in different places.

Take `COc1cc2ncnc(Nc3ccc(O)cc3)c2cc1OC` [WHI-P131, 4-(4′-Hydroxylphenyl)-amino-6,7-dimethoxyquinazoline]: the “ionomycin induced nonspecific calcium responses” value in the data set on RBL-2H3 cells is on record as “not affected”. For the same compound, the “calcium response to DNP-BSA” value in the data set on RBL-2H3 cells (30 μM, IgE-sensitized, Fluo-3 loaded) is reported as “abrogated”. Moreover, in the data set on BALB/c mice (5 minutes after antigen challenge), the plasma histamine response entry is “substantially reduced”. For the same compound, the “blue coloring of foot pads (plasma exudation)” value in the data set on BALB/c mice (30 min after antigen challenge) is given as “no significant blue coloring”. For the same compound, the “fluorescence intensity of avidin-FITC stained tissue mast cells (degranulation)” value in the data set with BALB/c mice (ears, after IgE/antigen challenge) is on record as “no reduction in fluorescence intensity”. Moreover, in data set [1] (i.p., 12.5 mg/kg), the absorption half-life is 6 min, the estimated bioavailability is given as 94.4%, the “time to reach maximum plasma concentration” value is 0.17 h and the β-half-life was found to be 1.9 h. In addition, the Cmax in data set [1] (i.p.) was 57.7 µM. In addition, the β-half-life in data set [1] (i.v., 12.5 mg/kg) was 2.1 h. In addition, the Cmax in data set [1] (i.v.) is 85.6 µM.

Source of the values: patent US6452005B1, “JAK-3 inhibitors for treating allergic disorders” (Parker Hughes Institute, priority 1999, dated 2002).
